Measured values taken from ChEMBL document CHEMBL5725601, “Tetrahydroisoquinoline derivatives useful as inhibitors of diacylglyceride O-acyltransferase 2” (2018).

Target: T1, Diacylglycerol O-acyltransferase 2 (Homo sapiens, UniProt Q96PD7)
T1 sequence (Q96PD7 whole entry): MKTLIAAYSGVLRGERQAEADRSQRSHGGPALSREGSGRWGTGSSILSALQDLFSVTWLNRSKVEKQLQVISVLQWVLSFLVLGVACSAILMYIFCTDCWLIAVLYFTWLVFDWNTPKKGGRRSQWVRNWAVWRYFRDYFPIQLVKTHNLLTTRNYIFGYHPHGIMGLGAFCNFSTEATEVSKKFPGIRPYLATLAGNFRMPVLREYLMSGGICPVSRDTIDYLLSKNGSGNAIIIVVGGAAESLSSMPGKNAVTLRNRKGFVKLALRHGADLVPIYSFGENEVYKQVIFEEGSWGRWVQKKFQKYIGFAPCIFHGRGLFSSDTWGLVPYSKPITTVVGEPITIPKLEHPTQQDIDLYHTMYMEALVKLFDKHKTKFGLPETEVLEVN
Experiment: Enzymatic Activity Assay: DGAT2 activity was determined by measuring the amount of enzymatic product triolein (1,2,3-Tri(cis-9-octadecenoyl)glycerol) using the membrane prep mentioned above. The assay was carried out in deep well 384 plates in a final volume of 40 μL at room temperature. The assay mixture contained the following: assay buffer (100 mM Tris·Cl, pH 7.0, 20 mM MgCl2, 5% ethanol), 25 μM of diolein, 10 μM of oleoyl-CoA and 10 ng/μL of DGAT2 membrane.

Structure (SMILES) | IC50
CC(C)(C)NC(=O)N1CCc2c(-c3cccc(C(F)(F)F)c3)ccc(C(=O)NCc3nc(-c4ccccn4)no3)c2C1 | 588 nM
CC(C)(C)NC(=O)N1CCc2c(-c3cccc(C(F)(F)F)c3)ccc(C(=O)NCc3noc(-c4ccccc4)n3)c2C1 | 326 nM
